From paper PMC10332459, “N-terminal lid swapping contributes to the substrate specificity and activity of thermophilic lipase TrLipE” (Frontiers in Microbiology, 2023) come the findings set out here.

Test in all cases: p-nitrophenol release at […] nm, non-linear fit
What all share (assay type): biochemical, Thermomicrobium roseum

Assay [1] deals with T1, TrL16.
T1 construct: gene PMGL3; N-terminal lid Asn2-Cys49 of 7B1X fused to TrLipE Val54-Ala323; His-tagged, E. coli BL21, 35-37 kDa
To be noted: 60 °C; Tris-HCl 50 mM pH 8.0; gum arabic and sodium deoxycholate emulsion; read-out: 4-Nitrophenyl decanoate.

Assay [2] deals with T2, TrL8.
T2 construct: gene ThaEst2349; N-terminal lid Pro2-Asp49 of 4V2I fused to TrLipE Val54-Ala323; His-tagged, E. coli BL21, 35-37 kDa
As to conditions: 60 °C; Tris-HCl 50 mM pH 8.0; gum arabic and sodium deoxycholate emulsion; read-out: 4-Nitrophenyl decanoate.

The test system of assay [3] is T3, TrL7.
T3 construct: gene SshEstI; N-terminal lid Pro2-Lys45 of 4P9N fused to TrLipE Val54-Ala323; His-tagged, E. coli BL21, 35-37 kDa
To be noted: 60 °C; Tris-HCl 50 mM pH 8.0; gum arabic and sodium deoxycholate emulsion; read-out: 4-Nitrophenyl laurate.

Assay [4] concerns T4, TrL5.
T4 construct: N-terminal lid Asn23-Pro66 of 4C89 fused to TrLipE Val54-Ala323; His-tagged, E. coli BL21, 35-37 kDa
As to conditions: 60 °C; Tris-HCl 50 mM pH 8.0; gum arabic and sodium deoxycholate emulsion; read-out: 4-Nitrophenyl laurate.

Assay [5] deals with T5, TrL2.
T5 construct: gene EstE5; N-terminal lid Ala2-Asp42 of 3H18 fused to TrLipE Val54-Ala323; His-tagged, E. coli BL21, 35-37 kDa
As to conditions: 60 °C; Tris-HCl 50 mM pH 8.0; gum arabic and sodium deoxycholate emulsion; read-out: 4-Nitrophenyl benzoate.

For assay [6], the system named is T6, TrL17.
T6 construct: gene EstN7; N-terminal lid Lys2-Glu45 of 7B4Q fused to TrLipE Val54-Ala323; His-tagged, E. coli BL21, 35-37 kDa
As to conditions: 60 °C; Tris-HCl 50 mM pH 8.0; gum arabic and sodium deoxycholate emulsion; read-out: 4-Nitrophenyl benzoate.

The subject of assay [7] is T7, TrL3.
T7 construct: gene EstE7; N-terminal lid Asp13-Gly57 of 3K6K fused to TrLipE Val54-Ala323; His-tagged, E. coli BL21, 35-37 kDa
As to conditions: 60 °C; Tris-HCl 50 mM pH 8.0; gum arabic and sodium deoxycholate emulsion; read-out: 4-Nitrophenyl benzoate.

The subject of assay [8] is T8, TrL18.
T8 construct: N-terminal lid Ala2-Glu45 of 7UAY fused to TrLipE Val54-Ala323; His-tagged, E. coli BL21, 35-37 kDa
As to conditions: 60 °C; Tris-HCl 50 mM pH 8.0; gum arabic and sodium deoxycholate emulsion; read-out: 4-Nitrophenyl benzoate.

The test system of assay [9] is T9, TrL4.
T9 construct: gene LipW; N-terminal lid Val2-Gly53 of 3QH4 fused to TrLipE Val54-Ala323; His-tagged, E. coli BL21, 35-37 kDa
As to conditions: 60 °C; Tris-HCl 50 mM pH 8.0; gum arabic and sodium deoxycholate emulsion; read-out: 4-Nitrophenyl palmitate.

Assay [10] has as its system T10, TrL1.
T10 construct: gene EST2; N-terminal lid Leu3-Pro44 of 1EVQ fused to TrLipE Val54-Ala323; His-tagged, E. coli BL21, 35-37 kDa
As to conditions: 60 °C; Tris-HCl 50 mM pH 8.0; gum arabic and sodium deoxycholate emulsion; read-out: 4-Nitrophenyl palmitate.

The subject of assay [11] is T11, TrL11.
T11 construct: gene E53; N-terminal lid Lys4-Gly69 of 5HC0 fused to TrLipE Val54-Ala323; His-tagged, E. coli BL21, 35-37 kDa
As to conditions: 60 °C; Tris-HCl 50 mM pH 8.0; gum arabic and sodium deoxycholate emulsion; read-out: 4-Nitrophenyl palmitate.

The subject of assay [12] is T12, TrL12.
T12 construct: gene TmelEST2; N-terminal lid Gln34-Glu74 of 5MIF fused to TrLipE Val54-Ala323; His-tagged, E. coli BL21, 35-37 kDa
As to conditions: 60 °C; Tris-HCl 50 mM pH 8.0; gum arabic and sodium deoxycholate emulsion; read-out: 4-Nitrophenyl palmitate.

Assay [13] deals with T13, TrL9.
T13 construct: gene Est8; N-terminal lid Ala2-Gly49 of 4YPV fused to TrLipE Val54-Ala323; His-tagged, E. coli BL21, 35-37 kDa
As to conditions: 60 °C; Tris-HCl 50 mM pH 8.0; gum arabic and sodium deoxycholate emulsion; read-out: 4-Nitrophenyl palmitate.

As for `CCCCCCCCCC(=O)Oc1ccc([N+](=O)[O-])cc1` [4-Nitrophenyl decanoate], the Km in assay [1] was determined as 44.7 µM; in assay [2], 21.8 µM.

Regarding `CCCCCCCCCCCC(=O)Oc1ccc([N+](=O)[O-])cc1` [4-Nitrophenyl laurate], the Km in assay [3] is 12.8 µM; in assay [4], 21.1 µM.

On to `O=C(Oc1ccc([N+](=O)[O-])cc1)c1ccccc1` [4-Nitrophenyl benzoate], for which the Km in [5] came out at 50 µM; in [6], 60.2 µM; in [7] it was 37 µM; in assay [8], 44.9 µM.

Turning to `CCCCCCCCCCCCCCCC(=O)Oc1ccc([N+](=O)[O-])cc1` [4-Nitrophenyl palmitate], the Km amounted to 7.46 µM in assay [9]; 55.3 µM in [10]; 77.4 µM in [11]; 13.7 µM in [12]; 23.2 µM in assay [13].
